In US6933290B2, “2-{N-(2-amino-3-(heteroaryl or aryl)propionyl)-aminoacyl}-amino}-alkylboronic acid derivatives” (Novartis AG, priority 2001, dated 2005):

Molecular target: T1, chymotrypsin-like activity of the 20S proteasome (Homo sapiens, UniProt P20618+P28074)
T1 construct: purified human placenta 20S proteasome; tissue Diabetes Forschungsinstitut, Düsseldorf, Germany; host or cells: human placenta
Test: Inhibition of the chymotrypsin-like activity of the 20S proteasome (Suc-LLVY-AMC hydrolysis)
Type: biochemical
Settings: purified human placenta 20S proteasome, Suc-LLVY-AMC substrate, read-out: IC50 [μM] (results of one or two experiments)
Excerpt: It is based on the hydrolysis of the fluorogenic peptide Suc-LLVY-AMC (Succinyl-leucine-leucine-vatine-tyrosine-7-amino-4-methyl-coumarin), which is cleaved exclusively at the Y-AMC bond by the 20S proteasome. Hydrolysis of this peptide is accompanied by an increase in fluorescence intensity (λex (excitation wavelength): 355 nm; μem (emission wavelength): 460 nm) due to release of the […] that accompanies diffusion apart of the hydrolysis product Suc-LLVY.
2 μl of a 1 mM solution of a test compound in DMSO (dimethylsulfoxide, 20 μM final concentration in the well) are preincubated for 60 min at room temperature in black 96-well microtiter plates together with a mixture of 1 μl purified human placenta 20S proteasome (Diabetes Forschungsinstitut, DÜsseldorf, Germany; about 100 ng proteasome, depending on the proteasome preparation) and 47 μl buffer-Ca (5 mM CaCl2, 20 mM Tris/HCl (Tris-(hydroxymethyl)-amino-methane hydrochloride) pH 8.0). 3 μl of a 2.67 mM solution of Suc-LLVY-AMC (Bachem, Switzerland) in DMSO (80 μM final concentration in the well) and 47 μl buffer-Ca are mixed and added. The resulting mixture is incubated for 3-24 h at 37° C. If desired, proteolysis of the substrate can be stopped by addition of 50 μl stop solution (100 mM monochloroacetic acid, 130 mM NaOH, 100 mM acetic acid, pH=4.3). The fluorescence is monitored with a FLUOROSKAN ASCENT™ microtiter plate reader.
For each measurement series two control experiments are carried out: • 1.) 0% value: 2 μl DMSO are used in the above described assay instead of 2 μl of a 1 mM solution of a test compound in DMSO and 48 μl buffer-Ca instead of a mixture of 47 μl buffer-Ca and 1 μl purified proteasome. • 2.) 100% value: in the above described assay 2 μl DMSO are used instead of 2 μl of a 1 mM solution of the test compound in DMSO. Calculation [formula]
The IC50 value is defined as that concentration of a compound at which the remaining activity is 50% compared to the […].

| SMILES | IC50 |
| --- | --- |
| COc1cc(C[C@@H](Nc2cccc(-c3ccccc3)c2)C(=O)N[C@H](C(=O)N[C@@H](CC(C)C)B(O)O)C(C)C)cc(OC)c1OC [Example 22, (R)-1-{(S)-2-[(R)-2-(Biphenyl-3-ylamino)-3-(3,4,5-trimethoxy-phenyl)-propionylamino]-3-methyl-butyrylamino}-3-methyl-butylboronic acid] | 0.0017 µM |
| COc1cc(C[C@H](Nc2cccc(-c3ccccc3)c2)C(=O)N[C@H](C(=O)NC(CC(C)C)B2OC(C)(C)C(C)(C)O2)C(C)C)cc(OC)c1OC (stereo partly drawn) [Example 23, (S)-2-[(S)-2-(Biphenyl-3-ylamino)-3-(3,4,5-trimethoxy-phenyl)-propionylamino]-3-methyl-N-[3-methyl-1-(4,4,5,5-tetramethyl-[1,3,2]dioxaborolan-2-yl)-butyl]-butyramide] | 0.0021 µM |
| COc1cc(C[C@H](Nc2cccc(-c3ccccc3)c2)C(=O)N[C@H](C(=O)NC(CC(C)C)B(O)O)C(C)C)cc(OC)c1OC (stereo partly drawn) [Example 24, 1-{(S)-2-[(S)-2-(Biphenyl-3-ylamino)-3-(3,4,5-trimethoxy-phenyl)-propionylamino]-3-methyl-butyrylamino}-3-methyl-butylboronic acid] | 0.0021 µM |
| COc1cc(C[C@H](NC(=O)Cc2cccc(Oc3ccccc3)c2)C(=O)N[C@H](C(=O)N[C@@H](CC(C)C)B(O)O)C(C)C)cc(OC)c1OC [Example 28, (R)-3-Methyl-1-{(S)-3-methyl-2-[(S)-2-[2-(3-phenoxy-phenyl)-acetylamino]-3-(3,4,5-trimethoxy-phenyl)-propionylamino]-butyrylamino}-butylboronic acid] | 0.0008 µM |
| CC(C)C[C@H](NC(=O)[C@@H](NC(=O)[C@H](Cc1ccc(OCc2ccccc2)cc1)NC(=O)Cc1cccc(OCc2ccccc2)c1)C(C)C)B(O)O [Example 30, (R)-1-((S)-2{(S)-3-(4-Benzyloxy-phenyl)-2-[2-(3-benzyloxy-phenyl)-acetylamino]-propionylamino}-3-methyl-butyrylamino)-3-methyl-butylboronic acid] | 0.0059 µM |
| COc1cc(C[C@H](Nc2cccc(-c3ccccc3)c2)C(=O)N[C@@H](CC(C)C)C(=O)N[C@@H](CC(C)C)B(O)O)cc(OC)c1OC [Example 32, (R)-1-{(S)-2-[(S)-2-(Biphenyl-3-ylamino)-3-(3,4,5-trimethoxy-phenyl)-propionylamino]-4-methyl-pentanoylamino}-3-methyl-butylboronic acid] | 0.0037 µM |
| COc1ccc(C[C@H](Nc2cccc(-c3ccccc3)c2)C(=O)N[C@@H](CC(C)C)C(=O)N[C@@H](CC(C)C)B2O[C@@H]3C[C@@H]4C[C@@H](C4(C)C)[C@]3(C)O2)cc1 [Example 35, (S)-2-[(S)-2-(Biphenyl-3-ylamino)-3-(4-methoxy-phenyl)-propionylamino]-4-methyl-pentanoic acid [(R)-3-methyl-1-((1S,2S,6R,8S)-2,9,9-trimethyl-3,5-dioxa-4-bora-tricyclo[6.1.1.0^2,6]dec-4-yl)-butyl]-amide] | 0.0023 µM |
| COc1ccc(C[C@H](Nc2cccc(-c3ccccc3)c2)C(=O)N[C@@H](CC(C)C)C(=O)N[C@@H](CC(C)C)B(O)O)cc1 [Example 36, (R)-1-{(S)-2-[(S)-2-(Biphenyl-3-ylamino)-3-(4-methoxy-phenyl)-propionylamino]-4-methyl-pentanoylamino}-3-methyl-butylboronic acid] | 0.0023 µM |
| COc1cc(C[C@H](Nc2cccc(-c3ccccc3)c2)C(=O)N[C@@H](C)C(=O)N[C@@H](CC(C)C)B(O)O)cc(OC)c1OC [Example 38, (R)-1-{(S)-2-[(S)-2-(Biphenyl-3-ylamino)-3-(3,4,5-trimethoxy-phenyl)-propionylamino]-propionylamino}-3-methyl-butylboronic acid] | 0.0017 µM |
| COc1ccc(C[C@H](Nc2cccc(-c3ccccc3)c2)C(=O)N[C@@H](C)C(=O)N[C@@H](CC(C)C)B2O[C@@H]3C[C@@H]4C[C@@H](C4(C)C)[C@]3(C)O2)c(OC)c1OC [Example 39, (S)-2-(Biphenyl-3-ylamino)-N-{(S)-1-[(R)-3-methyl-1-((1S,2S,6R,8S)-2,9,9-trimethyl-3,5-dioxa-4-bora-tricyclo[6.1.1.0^2,6]dec-4-yl)-butylcarbamoyl]-ethyl}-3-(2,3,4-trimethoxy-phenyl)-propionamide] | 0.0019 µM |
| COc1ccc(C[C@H](Nc2cccc(-c3ccccc3)c2)C(=O)N[C@@H](C)C(=O)N[C@@H](CC(C)C)B(O)O)c(OC)c1OC [Example 40, (R)-1-{(S)-2-[(S)-2-(Biphenyl-3-ylamino)-3-(2,3,4-trimethoxy-phenyl)-propionylamino]-propionylamino}-3-methyl-butylboronic acid] | 0.0022 µM |

Now from value to molecule:

| IC50 | SMILES |
| --- | --- |
| 0.0008 µM | COc1ccc(C[C@H](NC(=O)Cc2cccc(Oc3ccccc3)c2)C(=O)N[C@H](C(=O)N[C@@H](CC(C)C)B2O[C@@H]3C[C@@H]4C[C@@H](C4(C)C)[C@]3(C)O2)C(C)C)cc1OC [Example 25, (S)-2-{(S)-3-(3,4-Dimethoxy-phenyl)-2-[2-(3-phenoxy-phenyl)-acetylamino]-propionylamino}-3-methyl-N-[(R)-3-methyl-1-((1S,2S,6R,8S)-2,9,9-trimethyl-3,5-dioxa-4-bora-tricyclo[6.1.1.0^2,6]dec-4-yl)-butyl]-butyramide] |
| 0.001 µM | COc1ccc(C[C@H](NC(=O)Cc2cccc(Oc3ccccc3)c2)C(=O)N[C@H](C(=O)N[C@@H](CC(C)C)B(O)O)C(C)C)cc1OC [Example 26, (R)-1-((S)-2-{(S)-3-(3,4-Dimethoxy-phenyl)-2-[2-(3-phenoxy-phenyl)-acetylamino]-propionylamino}-3-methyl-butyrylamino)-3-methyl-butylboronic acid] |
| 0.0003 µM | COc1cc(C[C@H](NC(=O)Cc2cccc(Oc3ccccc3)c2)C(=O)N[C@H](C(=O)N[C@@H](CC(C)C)B2O[C@@H]3C[C@@H]4C[C@@H](C4(C)C)[C@]3(C)O2)C(C)C)cc(OC)c1OC [Example 27, (S)-3-Methyl-N-[(R)-3-methyl-1-((1S,2S,6R,8S)-2,9,9-trimethyl-3,5-dioxa-4-bora-tricyclo[6.1.1.0^2,6]dec-4-yl)-butyl]-2-[(S)-2-[2-(3-phenoxy-phenyl)-acetylamino]-3-(3,4,5-trimethoxy-phenyl)-propionylamino]-butyramide] |
| 0.004 µM | CC(C)C[C@H](NC(=O)[C@@H](NC(=O)[C@H](Cc1ccc(OCc2ccccc2)cc1)NC(=O)Cc1cccc(OCc2ccccc2)c1)C(C)C)B1O[C@@H]2C[C@@H]3C[C@@H](C3(C)C)[C@]2(C)O1 [Example 29, (S)-2-{(S)-3-(4-Benzyloxy-phenyl)-2-[2-(3-benzyloxy-phenyl)-acetylamino]-propionylamino}-3-methyl-N-[(R)-3-methyl-1-((1S,2S,6R,8S)-2,9,9-trimethyl-3,5-dioxa-4-bora-tricyclo[6.1.1.0^2,6]dec-4-yl)-butyl]-butyramide] |
| 0.0022 µM | COc1cc(C[C@H](Nc2cccc(-c3ccccc3)c2)C(=O)N[C@@H](CC(C)C)C(=O)N[C@@H](CC(C)C)B2O[C@@H]3C[C@@H]4C[C@@H](C4(C)C)[C@]3(C)O2)cc(OC)c1OC [Example 31, (S)-2-[(S)-2-(Biphenyl-3-ylamino)-3-(3,4,5-trimethoxy-phenyl)-propionylamino]-4-methyl-pentanoic acid [(R)-3-methyl-1-((1S,2S,6R,8S)-2,9,9-trimethyl-3,5-dioxa-4-bora-tricyclo[6.1.1.0^2,6]dec-4-yl)-butyl]-amide] |
| 0.0026 µM | COc1ccc(C[C@H](Nc2cccc(-c3ccccc3)c2)C(=O)N[C@@H](CC(C)C)C(=O)N[C@@H](CC(C)C)B2O[C@@H]3C[C@@H]4C[C@@H](C4(C)C)[C@]3(C)O2)cc1OC [Example 33, (S)-2-[(S)-2-(Biphenyl-3-ylamino)-3-(3,4-dimethoxy-phenyl)-propionylamino]-4-methyl-pentanoic acid [(R)-3-methyl-1-((1S,2S,6R,8S)-2,9,9-trimethyl-3,5-dioxa-4-bora-tricyclo[6.1.1.0^2,6]dec-4-yl)-butyl]-amide] |
| 0.0013 µM | COc1cc(C[C@H](Nc2cccc(-c3ccccc3)c2)C(=O)N[C@@H](C)C(=O)N[C@@H](CC(C)C)B2O[C@@H]3C[C@@H]4C[C@@H](C4(C)C)[C@]3(C)O2)cc(OC)c1OC [Example 37, (S)-2-(Biphenyl-3-ylamino)-N-{(S)-1-[(R)-3-methyl-1-((1S,2S,6R,8S)-2,9,9-trimethyl-3,5-dioxa-4-bora-tricyclo[6.1.1.0^2,6]dec-4-yl)-butylcarbamoyl]-ethyl}-3-(3,4,5-trimethoxy-phenyl)-propionamide] |
